# Source: patent US20250154109A1, “SODIUM CHANNEL BLOCKING COMPOUNDS, DERIVATIVES THEREOF, AND METHODS OF THEIR USE” (LATIGO BIOTHERAPEUTICS, INC, priority 2022, published 2025)
# pIC50: −log10 of the molar value. Like-named read-outs stand apart in the source and are kept apart here.
# Biological target: human Nav1.8 (Homo sapiens, UniProt Q9Y5Y9)
# Test: SyncroPatch384PE assay (automated patch clamp)
# Format: cell-based
# Conditions: human Nav1.8/b3 CHO cells
# [1] = inactivated state block (P2 measurement), read-out: P2 IC50
# [2] = resting state block (P1 measurement), read-out: P1 IC50
# Sequence of human Nav1.8 (Q9Y5Y9 whole entry): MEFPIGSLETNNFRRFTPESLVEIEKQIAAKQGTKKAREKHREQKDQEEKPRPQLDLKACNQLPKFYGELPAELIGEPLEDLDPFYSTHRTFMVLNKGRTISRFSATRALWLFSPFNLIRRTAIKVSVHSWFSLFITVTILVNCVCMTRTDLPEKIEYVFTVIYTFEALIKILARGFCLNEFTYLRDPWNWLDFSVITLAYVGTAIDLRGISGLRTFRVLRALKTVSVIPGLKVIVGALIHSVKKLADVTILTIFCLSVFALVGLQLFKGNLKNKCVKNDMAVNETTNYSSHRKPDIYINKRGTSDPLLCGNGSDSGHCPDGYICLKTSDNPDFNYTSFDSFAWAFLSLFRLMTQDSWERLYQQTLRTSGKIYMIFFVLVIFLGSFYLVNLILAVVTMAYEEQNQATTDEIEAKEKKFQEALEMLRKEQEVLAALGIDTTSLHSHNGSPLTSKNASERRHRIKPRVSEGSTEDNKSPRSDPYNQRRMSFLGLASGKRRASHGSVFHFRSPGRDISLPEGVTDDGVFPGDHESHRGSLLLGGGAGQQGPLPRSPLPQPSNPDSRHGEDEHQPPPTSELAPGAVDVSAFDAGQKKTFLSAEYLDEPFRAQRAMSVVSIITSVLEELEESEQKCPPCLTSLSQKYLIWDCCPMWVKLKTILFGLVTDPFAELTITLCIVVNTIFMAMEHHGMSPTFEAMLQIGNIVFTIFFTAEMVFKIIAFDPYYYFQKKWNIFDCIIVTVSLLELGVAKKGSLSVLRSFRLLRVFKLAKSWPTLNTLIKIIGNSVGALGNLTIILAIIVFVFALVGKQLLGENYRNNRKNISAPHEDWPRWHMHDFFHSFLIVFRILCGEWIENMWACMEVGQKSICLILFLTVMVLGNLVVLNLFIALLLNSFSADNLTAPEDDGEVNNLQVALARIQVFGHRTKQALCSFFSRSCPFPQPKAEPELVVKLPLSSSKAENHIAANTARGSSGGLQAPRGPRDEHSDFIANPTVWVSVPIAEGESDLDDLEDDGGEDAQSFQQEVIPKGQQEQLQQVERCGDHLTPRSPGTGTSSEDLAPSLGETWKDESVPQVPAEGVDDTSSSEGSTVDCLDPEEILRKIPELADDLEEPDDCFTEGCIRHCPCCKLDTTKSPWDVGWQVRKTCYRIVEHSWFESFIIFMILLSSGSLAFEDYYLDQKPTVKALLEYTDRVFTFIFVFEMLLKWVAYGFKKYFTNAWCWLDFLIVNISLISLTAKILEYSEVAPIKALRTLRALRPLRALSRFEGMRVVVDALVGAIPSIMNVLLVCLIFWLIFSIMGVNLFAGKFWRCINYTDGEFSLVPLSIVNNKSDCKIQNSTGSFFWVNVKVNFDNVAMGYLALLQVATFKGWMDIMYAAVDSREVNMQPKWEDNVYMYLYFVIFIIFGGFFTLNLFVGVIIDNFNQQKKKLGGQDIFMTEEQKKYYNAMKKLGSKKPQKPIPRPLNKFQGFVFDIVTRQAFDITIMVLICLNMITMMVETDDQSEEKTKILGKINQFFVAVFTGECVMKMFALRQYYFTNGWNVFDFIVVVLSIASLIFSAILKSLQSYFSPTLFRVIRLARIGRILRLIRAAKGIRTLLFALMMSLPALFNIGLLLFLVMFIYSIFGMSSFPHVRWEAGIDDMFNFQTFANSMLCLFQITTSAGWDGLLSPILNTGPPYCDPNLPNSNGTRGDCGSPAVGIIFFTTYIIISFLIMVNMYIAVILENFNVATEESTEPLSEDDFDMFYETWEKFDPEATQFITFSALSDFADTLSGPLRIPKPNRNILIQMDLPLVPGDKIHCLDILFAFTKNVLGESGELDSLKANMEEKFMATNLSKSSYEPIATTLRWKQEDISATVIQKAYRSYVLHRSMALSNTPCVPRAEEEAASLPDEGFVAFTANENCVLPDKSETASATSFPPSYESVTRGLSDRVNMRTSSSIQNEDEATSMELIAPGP
pIC50 [1],pIC50 [2],Structure (SMILES)
6.70 to 7.00,6.70 to 7.00,"Cc1c(-c2ccccn2)cnc(N2CCCC(F)(F)CC2)c1C(=O)Nc1cccc(S(C)(=N)=O)c1 (stereo not drawn) [Example 99, 6 C(4,4-difluoroazepan-1-yl)-4methyl-N-(3-(S-methylsulfonimidoyl)phenyl)-[2,3bipyridine]-5carboxamide]"
< 6.70,< 6.70,"Cc1c(C(F)(F)F)nnc(N2CC3(COC3)C2)c1C(=O)Nc1cccc(S(C)(=N)=O)c1 (stereo not drawn) [Example 100, 5-methyl-N-(3-(S-methylsulfonimidoyl)phenyl)-3-(2-oxa-6-azaspiro[3.3]heptan-6-yl)-6-(trifluoromethyl)pyridazine-4-carboxamide]"
7.30 to 8.30,7.30 to 8.30,"Cc1c(C(F)(F)F)nnc(N2CCCC(F)(F)CC2)c1C(=O)Nc1ccnc(S(C)(=N)=O)c1 (stereo not drawn) [Example 102, 3-(4,4-difluoroazepan-1-yl)-5-methyl-N-(2-(S-methylsulfonimidoyl)pyridin-4-yl)-6-(trifluoromethyl)pyridazine-4-carboxamide]"
≥ 8.30,≥ 8.30,"Cc1c(-c2ccccc2)cnc(N2CCCC(F)(F)CC2)c1C(=O)Nc1cccc([S@@](C)(=N)=O)c1 [Example 103, (S)-2-(4,4-difluoroazepan-1-yl)-4-methyl-N-(3-(S-methylsulfonimidoyl)phenyl)-5-phenylnicotinamide]"
7.30 to 8.30,7.30 to 8.30,"Cc1c(-c2c(F)cccc2F)cnc(N2CCCC(F)(F)CC2)c1C(=O)Nc1cccc(S(C)(=N)=O)c1 (stereo not drawn) [Example 104, 2-(4,4-difluoroazepan-1-yl)-5-(2,6-difluorophenyl)-4-methyl-N-(3-(S-methylsulfonimidoyl)phenyl)nicotinamide]"
7.00 to 7.30,7.00 to 7.30,"Cc1ccnc(N2CCCC(F)(F)CC2)c1C(=O)Nc1cccc(S(C)(=N)=O)c1 (stereo not drawn) [Example 105, 2-(4,4-difluoroazepan-1-yl)-4-methyl-N-(3-(S-methylsulfonimidoyl)phenyl)nicotinamide]"
≥ 8.30,≥ 8.30,"Cc1nc(N2CCCC(F)(F)CC2)c(C(=O)Nc2cccc(S(C)(=N)=O)c2)c(C)c1Cl (stereo not drawn) [Example 106, 5-chloro-2-(4,4-difluoroazepan-1-yl)-4,6-dimethyl-N-(3-(S-methylsulfonimidoyl)phenyl)nicotinamide]"
≥ 8.30,≥ 8.30,"Cc1c(Cl)c(C(F)(F)F)nc(N2CCCC(F)(F)CC2)c1C(=O)Nc1cccc([S@@](C)(=N)=O)c1 [Example 108, (S)-5-chloro-2-(4,4-difluoroazepan-1-yl)-4-methyl-N-(3-(S-methylsulfonimidoyl)phenyl)-6-(trifluoromethyl)nicotinamide]"
≥ 8.30,≥ 8.30,"Cc1c(Cl)c(C(F)(F)F)nc(N2CCCC(F)(F)CC2)c1C(=O)Nc1cccc([S@](C)(=N)=O)c1 [Example 109, (R)-5-chloro-2-(4,4-difluoroazepan-1-yl)-4-methyl-N-(3-(S-methylsulfonimidoyl)phenyl)-6-(trifluoromethyl)nicotinamide]"
≥ 8.30,≥ 8.30,"Cc1c(-c2cccc(F)c2)cnc(N2CCCC(F)(F)CC2)c1C(=O)Nc1cccc([S@](C)(=N)=O)c1 [Example 110, (R)-2-(4,4-difluoroazepan-1-yl)-5-(3-fluorophenyl)-4-methyl-N-(3-(S-methylsulfonimidoyl)phenyl)nicotinamide]"
≥ 8.30,≥ 8.30,"Cc1c(-c2cccc(F)c2)cnc(N2CCCC(F)(F)CC2)c1C(=O)Nc1cccc([S@@](C)(=N)=O)c1 [Example 111, (S)-2-(4,4-difluoroazepan-1-yl)-5-(3-fluorophenyl)-4-methyl-N-(3-(S-methylsulfonimidoyl)phenyl)nicotinamide]"
7.00 to 7.30,7.00 to 7.30,"Cc1c(-c2ccc(F)cn2)cnc(N2CCCC(F)(F)CC2)c1C(=O)Nc1cccc(S(C)(=N)=O)c1 (stereo not drawn) [Example 112, 6(4,4-difluoroazepan-1-yl)-5-fluoro-4methyl-N-(3-(S-methylsulfonimidoyl)phenyl)-[2,3bipyridine]-5carboxamide]"
≥ 8.30,≥ 8.30,"Cc1ccsc1-c1cnc(N2CCCC(F)(F)CC2)c(C(=O)Nc2cccc(S(C)(=N)=O)c2)c1C (stereo not drawn) [Example 113, 2-(4,4-difluoroazepan-1-yl)-4-methyl-N-(3-(S-methylsulfonimidoyl)phenyl)-5-(3-methylthiophen-2-yl)nicotinamide]"
≥ 8.30,≥ 8.30,"Cc1nc(N2CCCC(F)(F)CC2)c(C(=O)Nc2ccnc(S(=N)(N)=O)c2)cc1C(F)(F)F (stereo not drawn) [Example 114, 2-(4,4-difluoroazepan-1-yl)-6-methyl-N-(2-sulfamidimidoylpyridin-4-yl)-5-(trifluoromethyl)nicotinamide]"
≥ 8.30,≥ 8.30,"Cc1c(C(F)(F)F)nnc(N2CCCC(F)(F)CC2)c1C(=O)Nc1cccc(S(=N)(N)=O)c1 (stereo not drawn) [Example 115, 3-(4,4-difluoroazepan-1-yl)-5-methyl-N-(3-sulfamidimidoylphenyl)-6-(trifluoromethyl)pyridazine-4-carboxamide]"
< 6.70,< 6.70,"Cc1c(N2CC3(COC3)C2)cnc(N2CCCC(F)(F)CC2)c1C(=O)Nc1cccc([S@](C)(=N)=O)c1 [Example 116, (R)-2-(4,4-difluoroazepan-1-yl)-4-methyl-N-(3-(S-methylsulfonimidoyl)phenyl)-5-(2-oxa-6-azaspiro[3.3]heptan-6-yl)nicotinamide]"
7.00 to 7.30,6.70 to 7.00,"Cc1c(-c2ccccc2)nnc(N2CCCC(F)(F)CC2)c1C(=O)Nc1cccc([S@@](C)(=N)=O)c1 [Example 117, (S)-3-(4,4-difluoroazepan-1-yl)-5-methyl-N-(3-(S-methylsulfonimidoyl)phenyl)-6-phenylpyridazine-4-carboxamide]"
7.00 to 7.30,7.00 to 7.30,"Cc1c(-c2ccccc2)nnc(N2CCCC(F)(F)CC2)c1C(=O)Nc1cccc([S@](C)(=N)=O)c1 [Example 118, (R)-3-(4,4-difluoroazepan-1-yl)-5-methyl-N-(3-(S-methylsulfonimidoyl)phenyl)-6-phenylpyridazine-4-carboxamide]"
7.30 to 8.30,7.30 to 8.30,"Cc1c(C(F)(F)F)nnc(N2CCCC(F)(F)CC2)c1C(=O)Nc1ccnc(S(=N)(N)=O)c1 (stereo not drawn) [Example 119, 3-(4,4-difluoroazepan-1-yl)-5-methyl-N-(2-sulfamidimidoylpyridin-4-yl)-6-(trifluoromethyl)pyridazine-4-carboxamide]"
7.00 to 7.30,6.70 to 7.00,"Cc1c(C(F)(F)F)nnc(N2CCCC(F)(F)CC2)c1C(=O)Nc1cccc(S(C)(=N)=N)c1 [Example 120, 3-(4,4-difluoroazepan-1-yl)-N-{3-[diimino(methyl)-λ^6-sulfanyl]phenyl}-5-methyl-6-(trifluoromethyl)pyridazine-4-carboxamide]"
≥ 8.30,≥ 8.30,"Cc1nc(N2CCCC(F)(F)CC2)c(C(=O)Nc2cccc(S(=N)(N)=O)c2)cc1C(F)(F)F (stereo not drawn) [Example 121, 2-(4,4-difluoroazepan-1-yl)-6-methyl-N-(3-sulfamidimidoylphenyl)-5-(trifluoromethyl)nicotinamide]"
≥ 8.30,≥ 8.30,"Cc1c(-c2ccccc2)cnc(N2CCCC(F)(F)CC2)c1C(=O)Nc1cccc([S@](C)(=N)=O)c1 [Example 122, (R)-2-(4,4-difluoroazepan-1-yl)-4-methyl-N-(3-(S-methylsulfonimidoyl)phenyl)-5-phenylnicotinamide]"
< 6.70,< 6.70,"Cc1c(C#CCO)cnc(N2CCCC(F)(F)CC2)c1C(=O)Nc1cccc([S@](C)(=N)=O)c1 [Example 123, (R)-2-(4,4-difluoroazepan-1-yl)-5-(3-hydroxyprop-1-yn-1-yl)-4-methyl-N-(3-(S-methylsulfonimidoyl)phenyl)nicotinamide]"
6.70 to 7.00,6.70 to 7.00,"Cc1c(C#CCN(C)C)cnc(N2CCCC(F)(F)CC2)c1C(=O)Nc1cccc([S@](C)(=N)=O)c1 [Example 124, (R)-2-(4,4-difluoroazepan-1-yl)-5-(3-(dimethylamino)prop-1-yn-1-yl)-4-methyl-N-(3-(S-methylsulfonimidoyl)phenyl)nicotinamide]"
7.30 to 8.30,7.30 to 8.30,"Cc1c(C#N)cnc(N2CCCC(F)(F)CC2)c1C(=O)Nc1cccc([S@](C)(=N)=O)c1 [Example 125, (R)-5-cyano-2-(4,4-difluoroazepan-1-yl)-4-methyl-N-(3-(S-methylsulfonimidoyl)phenyl)nicotinamide]"
≥ 8.30,≥ 8.30,"CNCC(=O)N=[S@](C)(=O)c1cccc(NC(=O)c2c(N3CCCC(F)(F)CC3)ncc(C#N)c2C)c1 [Example 126, (R)-5-cyano-2-(4,4-difluoroazepan-1-yl)-4-methyl-N-(3-(S-methyl-N-(methylglycyl)sulfonimidoyl)phenyl)nicotinamide]"
≥ 8.30,≥ 8.30,"CC#Cc1cnc(N2CCCC(F)(F)CC2)c(C(=O)Nc2cccc([S@](C)(=N)=O)c2)c1C [Example 127, (R)-2-(4,4-difluoroazepan-1-yl)-4-methyl-N-(3-(S-methylsulfonimidoyl)phenyl)-5-(prop-1-yn-1-yl)nicotinamide]"
< 6.70,< 6.70,"Cc1c(C(F)(F)F)nnc(N2CCCC(F)(F)CC2)c1C(=O)NC12CC(C(N)=O)(C1)C2 [Example 128, N-(3-carbamoylbicyclo[1.1.1]pentan-1-yl)-3-(4,4-difluoroazepan-1-yl)-5-methyl-6-(trifluoromethyl)pyridazine-4-carboxamide]"
< 6.70,< 6.70,"Cc1c(C(N)=O)cnc(N2CCCC(F)(F)CC2)c1C(=O)Nc1cccc([S@](C)(=N)=O)c1 [Example 129, (R)-2-(4,4-difluoroazepan-1-yl)-4-methyl-N3-(3-(S-methylsulfonimidoyl)phenyl)pyridine-3,5-dicarboxamide]"

Structure (SMILES),pIC50 [1],pIC50 [2]
"CNS(=N)(=O)c1cc(NC(=O)c2cc(C(F)(F)F)c(C)nc2N2CCCC(F)(F)CC2)ccn1 (stereo not drawn) [Example 107, 2-(4,4-difluoroazepan-1-yl)-6-methyl-N-(2-(N-methylsulfamidimidoyl)pyridine-4-yl)-5-(trifluoromethyl)nicotinamide]",≥ 8.30,≥ 8.30
